From ChEMBL document CHEMBL1153970, “Characteristic of neuraminidase inhibitory xanthones from Cudrania tricuspidata” (Bioorg Med Chem, 2009)
Several values for one entry are separate records, joined by “and”; a condition that tells them apart may be missing. Equal values may be shown once.

Tests used:
[1] = biological target: T1, Sialidase (Clostridium perfringens) (UniProt P10481); assay: (§1) Inhibition of Clostridium perfringens neuraminidase by fluorimetry
T1 sequence (whole entry): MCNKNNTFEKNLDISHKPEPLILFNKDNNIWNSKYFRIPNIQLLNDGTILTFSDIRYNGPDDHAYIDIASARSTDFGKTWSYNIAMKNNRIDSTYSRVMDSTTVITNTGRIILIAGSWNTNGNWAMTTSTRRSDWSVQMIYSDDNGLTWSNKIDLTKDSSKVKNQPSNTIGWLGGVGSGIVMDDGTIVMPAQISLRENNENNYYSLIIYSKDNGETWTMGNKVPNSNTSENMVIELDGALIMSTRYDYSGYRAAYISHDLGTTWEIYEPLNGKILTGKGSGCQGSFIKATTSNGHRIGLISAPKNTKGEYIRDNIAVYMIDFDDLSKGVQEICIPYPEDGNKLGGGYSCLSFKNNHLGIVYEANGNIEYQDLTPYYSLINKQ

Sialidase [2] = biological target: T2, Sialidase (Clostridium perfringens, UniProt P10481); assay: as §1
T2 sequence (P10481 whole entry): T1 sequence (whole entry)

Sialidase [3] = biological target: T2, Sialidase; assay: Apparent binding affinity at Clostridium perfringens neuraminidase by fluorimetry; details: read-out: Ki(app)
Sialidase [4] = biological target: T2, Sialidase; assay: Competitive inhibition of Clostridium perfringens neuraminidase by Lineweaver-Burke plot and Dixon plot
[5] = biological target: T1, Sialidase (Clostridium perfringens); assay: Inhibition of Clostridium perfringens neuraminidase at 200 uM by fluorimetry

| SMILES | Activity [1] | IC50 (Sialidase [2]) | Ki (Sialidase [3]) | Ki (Sialidase [4]) | Activity [5] | inhibition [5] |
| --- | --- | --- | --- | --- | --- | --- |
| C=CC(C)(C)c1c(O)cc2oc3cc(O)c(O)c(CC=C(C)C)c3c(=O)c2c1O | Dose-dependent effect | 80 nM | 127 nM | 58 nM | – | – |
| C=CC(C)(C)c1c(O)cc(O)c2c(=O)c3cc(O)c4c(c3oc12)C=CC(C)(C)O4 | – | – | – | – | Dose-dependent effect | 30% |
| O=c1cc(-c2ccc(O)cc2)oc2cc(O)cc(O)c12 [APIGENIN] | – | 17400 nM | – | – | – | – |
| C=CC(C)(C)c1c(O)cc(O)c2c(=O)c3c(CC=C(C)C)c(O)c(O)cc3oc12 [CUDRATRICUSXANTHONE A] | Dose-dependent effect | 245 nM | 214 nM | 136 nM | – | – |
| C=CC(C)(C)c1c(OC)cc(O)c2c(=O)c3c(CC=C(C)C)c(O)c(O)cc3oc12 [CUDRAXANTHONE D] | Dose-dependent effect | 278 nM and 1270 nM | 436 nM and 2230 nM | 143 nM and 950 nM | – | – |
| C=CC(C)(C)c1c(O)cc2oc3c(CC=C(C)C)c(O)c(O)cc3c(=O)c2c1O [CUDRAXANTHONE L] | Dose-dependent effect | 228 nM | 568 nM | 138 nM | – | – |
| CC(C)=CCc1c(O)c(O)cc2c(=O)c3c(O)c4c(cc3oc12)OC(C)C4(C)C (centres undefined) [CUDRAXANTHONE M] | Dose-dependent effect | 186 nM | 510 nM | 98 nM | – | – |
| C=CC(C)(C)c1c2c(c(O)c3c(=O)c4ccc(O)c(O)c4oc13)C=CC(C)(C)O2 [MACLURAXANTHONE] | Dose-dependent effect | 186 nM | 477 nM | 103 nM | – | – |
| O=c1c2cc(O)c(O)cc2oc2cc(O)c([C@@H]3O[C@H](CO)[C@@H](O)[C@H](O)[C@H]3O)c(O)c12 [MANGIFERIN] | – | 16200 nM | – | – | – | – |
| O=c1c(O)c(-c2ccc(O)c(O)c2)oc2cc(O)cc(O)c12 [QUERCETIN] | – | 2700 nM | – | – | – | – |
